Patent US20100310514A1, “Anti-Inflammatory Bacteria” (priority 2009, published 2010)
Residues, ends and D or L forms follow the SMILES beside them. *: point of attachment. Cbz = O=C(OCc1ccccc1)*

Legend:
AGS cells = details: LL-37 20 μg/ml, 24 h
AGS and TMK1 cells = details: all LL-37 treatment groups
Method: Cell culture and viability assay—The human gastric adenocarcinoma cell line AGS was purchased from American Type Culture Collection (Manassas, Va., USA). The gastric adenocarcinoma cell TMK1 was obtained from Dr. Eiichi Tahara (University of Hiroshima, Hiroshima, Japan). AGS and TMK1 cells were maintained in RPMI 1640 (Invitrogen) containing 10% fetal bovine serum (Invitrogen), 100 U/mL penicillin G, 100 μg/mL streptomycin, and maintained at 37° C., 95% humidity, and 5% carbon dioxide. Cell viability was determined by lactate dehydrogenase release assay (Roche, Indianapolis, Ind., USA).

[1] = system: dextran sodium sulfate-induced ulcerative colitis; assay: DSS-induced ulcerative colitis, oral bacteria given during 7 days of DSS; assay type: in vivo, Balb/c mice; details: 600 mg/kg orally once daily
Method: Male Balb/c mice 6-8 weeks old were used in the following experiments. They were allowed free access to standard laboratory chow and tap water. All animals were housed in an air-conditioned room with controlled temperature (22° C.±1° C.), humidity (65%-70%), and day/night cycle (12:12-hr light: dark). Mice were induced with acute colitis by giving 3% dextran sulfate sodium (DSS, molecular weight, 35-50 kDa) prepared in drinking water for 7 days (from Day 0 to Day 7). Normal control mice received tap water throughout the experiment. […] In a different group of transformed NZ3900, 0.25 ng/ml nisin was added and further incubated for 3 h. Bacteria were then harvested by centrifugation (5000 rpm, 15 min) and washed twice with sterilized PBS (pH 7.4) and resuspended in sterilized water to give 2×10^10 cfu/ml. Mice were given intragastrically (i.g.) with 0.5 ml (1×10^10 cfu) bacteria once daily at the beginning of the DSS feeding. Animals were sacrificed at the end of 7 days DSS drinking and bacteria feeding. Colonic myeloperoxidase (MPO) was measured as described previously (Guo X, et al. Gastroenterology 117, 884-892 (1999)). In brief, colon tissues were homogenized in an ice-cold […] PBS (pH 6.0) solution with 0.5% hexa-decyl-trimethyl-ammonium bromide. The homogenate was freeze-thawed three times, followed by repeated sonication for 60 seconds each and centrifugation for 20 minutes at 14,000 revolutions per minutes at 4° C. The activity of the supernatant was determined spectrophotometrically at 450 nm. The final value was expressed as enzyme units per mg of protein. Crypt loss is a histological finding in colitis. Therefore, histological analysis of mice administered with formulations per FIG. 16. The crypts were graded on a 4 grade scale as follows: Grade 0: intact crypt; Grade 1: loss of the basal ⅓ of the crypt; Grade 2: loss of the basal ⅔ of the crypt; Grade 3: loss of entire crypt with surface epithelium remaining intact; Grade 4: loss of both the entire crypt and surface epithelium.

[2] = system: Smad1/5, Smad2/3, cyclin E2; assay: Western blot of Smad/BMP signaling proteins in TMK1 cells; assay type: cell-based, human; details: MG-132, 4 h (1 μmol/L in FIG. 6)
[3] = system: Smad6, Smad7, p21Waf1/Cip1, p15Ink4a, p27Kip1, BMP ligands; assay: RT-PCR / real-time PCR mRNA expression in TMK1 cells; assay type: cell-based, human; details: MG-132, 4 h (1 μmol/L in FIG. 6)

## CC[C@H](C)[C@H](NC(=O)[C@H](CCCCN)NC(=O)[C@H](CCC(=O)O)NC(=O)[C@H](CCCCN)NC(=O)[C@H](CO)NC(=O)[C@H](CCCCN)NC(=O)[C@H](CCCNC(=N)N)NC(=O)[C@H](Cc1ccccc1)NC(=O)[C@H](Cc1ccccc1)NC(=O)[C@H](CC(=O)O)NC(=O)CNC(=O)[C@H](CC(C)C)NC(=O)[C@@H](N)CC(C)C)C(=O)NCC(=O)N[C@@H](CCCCN)C(=O)N[C@@H](CCC(=O)O)C(=O)N[C@@H](Cc1ccccc1)C(=O)N[C@@H](CCCCN)C(=O)N[C@@H](CCCNC(=N)N)C(=O)N[C@H](C(=O)N[C@H](C(=O)N[C@@H](CCC(N)=O)C(=O)N[C@@H](CCCNC(=N)N)C(=O)N[C@H](C(=O)N[C@@H](CCCCN)C(=O)N[C@@H](CC(=O)O)C(=O)N[C@@H](Cc1ccccc1)C(=O)N[C@@H](CC(C)C)C(=O)N[C@@H](CCCNC(=N)N)C(=O)N[C@@H](CC(N)=O)C(=O)N[C@@H](CC(C)C)C(=O)N[C@H](C(=O)N1CCC[C@H]1C(=O)N[C@@H](CCCNC(=N)N)C(=O)N[C@H](C(=O)N[C@@H](CCC(=O)O)C(=O)N[C@@H](CO)C(=O)O)[C@@H](C)O)C(C)C)[C@@H](C)CC)C(C)C)[C@@H](C)CC [LL-37]
AGS cells
  inhibition of AGS cell proliferation ([3H]thymidine incorporation): 10%
AGS and TMK1 cells
  cell viability (lactate dehydrogenase release): unaffected
TMK1 cells; LL-37 20 μg/ml, 24 h
  inhibition of TMK1 cell proliferation ([3H]thymidine incorporation): about 60%

## C=C1/C(=C\C=C2/CCC[C@]3(C)[C@@H]([C@H](C)CCCC(C)(C)O)CC[C@@H]23)C[C@@H](O)C[C@@H]1O [1α,25-dihydroxylvitamin D3]
TMK1 cells; 1 μmol/L VD3 for 24 h, read 48 h post-treatment
  TMK1 cell proliferation on induction of endogenous LL-37: inhibited cell proliferation

## O=C(O)c1cc(/N=N/c2ccc(S(=O)(=O)Nc3ccccn3)cc2)ccc1O [Sulfasalazine, sulfasalazine]
[1]
  MPO activity: did not affect
  mucus level: did not affect
  number of apoptotic cells in the colonic mucosa: did not affect
  number of microorganisms in the colon: did not affect

## CC(C)C[C@@H](C=O)NC(=O)[C@H](CC(C)C)NC(=O)[C@H](CC(C)C)NC(=O)OCc1ccccc1 [MG-132] (Cbz-Leu-Leu-Leu-aldehyde)
[2]
  Smad1/5 phosphorylation: dose-dependently increased
[3]
  BMP4 mRNA expression: dose-dependently increased
